The molecules below were run on NaCT-CHO (CHO cells stably expressing human NaCT) (assay: Assay of the citric acid cycle activation ([1,5-14C]-citric acid, diffusion of [14C]-CO2)). Details: 1 hour incubation at 37° C. with [1,5-14C]-citric acid.
Format: cell-based
From the text: Assay of the Citric Acid Cycle Activation
(1) Construction of the Human NaCT Expression Vector pME-NaCT
The human NaCT (also called SLC13A5 or NAC2; GenBank accession No. NM_177550) cDNA was inserted into the EcoRI-NotI site of the mammalian expression vector pME18S (GenBank accession No. AB009864) and purified by Qiagen Plasmid Maxi Kit (Qiagen).
(2) Establishment of NaCT Stably Expressed CHO Cells
The pME-NaCT vector and the pcDNA™3.1 vector containing the neomycin resistance gene (Life Technologies) were co-transfected into CHO-K1 cells (ATCC) by Lipofectaimine 2000 reagent (Life Technologies). The next day the cells were subcultured in Nutrient Mixture F-12 Ham (Sigma-Aldrich) with 10% FBS (Biological Industries), and Geneticin (Life Technologies) was added (final concentration 350 μg/mL) in the following day. CHO cell clones stably expressing NaCT were given by neomycin resistant cell screening and limiting dilution method. Established cell lines (named NaCT-CHO) were also maintained in culture medium (Nutrient Mixture F-12 Ham) with 10% FBS and 350 μg/mL Geneticin. For control cells (named pME-CHO) preparation, the naive pME18S were also transfected instead of pME-NaCT into CHO-K1 cells.
(3) Assay of the Citric Acid Cycle Activation
NaCT-CHO and pME-CHO were plated at 20,000 cells/well into white CulturPlate™-96 (PerkinElmer) two days before the assay. Prior to assay incubation, the cultured plates were washed twice with washing buffer, 10 mM HEPES-Tris(pH7.4) containing 140 mM choline chloride, 2 mM KCl, 1 mM CaCl2, 1 mM MgCl2. The compounds to be tested were dissolved and diluted in DMSO (Wako Pure Chemical industries) to 1,000 times of a final concentration, and further diluted to two times as high as the final concentration in assay buffer, 10 mM HEPES-Tris(pH7.4) containing 140 mM NaCl, 2 mM KCl, 1 mM CaCl2, 1 mM MgCl2. The range of final concentrations was properly determined based on the test compounds activity. Each 25 μL compound solution was added to well and subsequently 25 μL radio-labeled substrate solution containing 0.4 mM (0.4 MBq/mL) [1,5-^14C]-citric acid (PerkinElmer) in the assay buffer was added. After 1 hour incubation at 37° C., the reaction mixture was discarded and washed three times with pre-chilled washing buffer and then 0.1 mL MicroScint 20 (PerkinElmer) was added to well. The plate was sealed with TopSeal-A (PerkinElmer) and the radioactivity was measured using a TopCount (PerkinElmer). Non-specific activity (NS cpm) and total radio activity (Total cpm) were determined by counting of pME-CHO plated wells and NaCT-CHO plated wells without compounds, respectively. Diffusion of [^14C]—CO2 was able to be estimated from residual radioactivity (R cpm) by an equation (Total−R)/(Total−NS)×100(%). The difference of Total and R was disappeared in the presence of 0.1 μM antimycin A. EC50 values were calculated by regression analysis using SAS Statistical Analysis System (SAS institute Japan Ltd. Release 9.1).

Row | SMILES | EC50 [nM]
1 | CCOc1c(/C=C/c2cccc(C(F)(F)F)c2)cccc1-c1nn[nH]c1C#N [Example 43, 5-{2-ethoxy-3-[(E)-2-(3-trifluoromethyl-phenyl)-vinyl]-phenyl}-3H-[1,2,3]triazole-4-carbonitrile] | 670
2 | CCOc1ccc(/C=C/c2cccc(-c3nn[nH]c3C#N)c2)cc1 [Example 44, 5-{3-[(E)-2-(4-ethoxy-phenyl)-vinyl]-phenyl}-3H-[1,2,3]triazole-4-carbonitrile] | 690
3 | N#Cc1ccc(-c2nn[nH]c2C#N)cc1/C=C/c1cccc(C(F)(F)F)c1 [Example 45, 5-{4-cyano-3-[(E)-2-(3-trifluoromethyl-phenyl)-vinyl]-phenyl}-3H-[1,2,3]triazole-4-carbonitrile] | 910
4 | N#Cc1[nH]nnc1-c1ccc(C(F)(F)F)c(/C=C/c2cccc(C(F)(F)F)c2)c1 [Example 46, 5-{4-trifluoromethyl-3-[(E)-2-(3-trifluoromethyl-phenyl)-vinyl]-phenyl}-3H-[1,2,3]triazole-4-carbonitrile] | 980
5 | N#Cc1[nH]nnc1-c1cccc(/C=C/c2ccc(C(F)(F)F)cn2)c1 [Example 48, 5-{3-[(E)-2-(5-trifluoromethyl-pyridin-2-yl)-vinyl]-phenyl}-3H-[1,2,3]triazole-4-carbonitrile] | 430
6 | N#Cc1[nH]nnc1-c1cccc(/C=C\c2cc(C(F)(F)F)cc(C(F)(F)F)c2)c1 [Example 53, 5-{3-[(Z)-2-(3,5-bis-trifluoromethyl-phenyl)-vinyl]-phenyl}-3H-[1,2,3]triazole-4-carbonitrile] | 480
7 | CN(Cc1cccc(-c2nn[nH]c2C#N)c1)c1ccc(F)cc1 [Example 54, 5-(3-{[N-(4-fluoro-phenyl)-N-methyl-amino]-methyl}-phenyl)-3H-[1,2,3]triazole-4-carbonitrile] | 430
8 | N#Cc1[nH]nnc1-c1cccc(COc2ccc(C(F)(F)F)cn2)c1 [Example 56, 5-[3-(5-trifluoromethyl-pyridin-2-yloxymethyl)-phenyl]-3H-[1,2,3]triazole-4-carbonitrile] | 730
9 | N#Cc1[nH]nnc1-c1cccc(COc2cc(C(F)(F)F)cc(C(F)(F)F)c2)c1 [Example 57, 5-[3-(3,5-bis-trifluoromethyl-phenoxymethyl)-phenyl]-3H-[1,2,3]triazole-4-carbonitrile] | 480
10 | CN(Cc1cc(C(F)(F)F)cc(C(F)(F)F)c1)c1cccc(-c2nn[nH]c2C#N)c1 [Example 58, 5-{3-[N-(3,5-bis-trifluoromethyl-benzyl)-N-methyl-amino]-phenyl}-3H-[1,2,3]triazole-4-carbonitrile] | 720
11 | N#Cc1[nH]nnc1-c1cccc(OCc2cc3ccccc3o2)c1 [Example 59, 5-[3-(benzofuran-2-ylmethoxy)-phenyl]-3H-[1,2,3]triazole-4-carbonitrile] | 500
12 | COc1ccccc1COc1cc(-c2nn[nH]c2C#N)cc(C(F)(F)F)c1 [Example 61, 5-[3-(2-methoxy-benzyloxy)-5-trifluoromethyl-phenyl]-3H-[1,2,3]triazole-4-carbonitrile] | 440
13 | COc1cc(OCc2cc(C(F)(F)F)ccc2C(F)(F)F)cc(-c2nn[nH]c2C#N)c1 [Example 62, 5-[3-(2,5-bis-trifluoromethyl-benzyloxy)-5-methoxy-phenyl]-3H-[1,2,3]triazole-4-carbonitrile] | 600
14 | N#Cc1[nH]nnc1-c1cc(OCc2cc(C(F)(F)F)ccc2C(F)(F)F)cc(C(F)(F)F)c1 [Example 63, 5-[3-(2,5-bis-trifluoromethyl-benzyloxy)-5-trifluoromethyl-phenyl]-3H-[1,2,3]triazole-4-carbonitrile] | 960
15 | CC(Oc1cc(-c2nn[nH]c2C#N)cc(C(F)(F)F)c1)c1ccccc1 (stereo not shown) [Example 64, 5-[3-(1-phenyl-ethoxy)-5-trifluoromethyl-phenyl]-3H-[1,2,3]triazole-4-carbonitrile] | 240
16 | N#Cc1[nH]nnc1-c1cccc(CSCc2ccc(OC(F)(F)F)cc2)c1 [Example 65, 5-[3-(4-trifluoromethoxy-benzylsulfanylmethyl)-phenyl]-3H-[1,2,3]triazole-4-carbonitrile] | 790

Source: patent US10626095B2, “Cyanotriazole compounds” (OTSUKA PHARMACEUTICAL CO., LTD., priority 2013, dated 2020)
